These are literature values, as cited in paper PMC3744102 (2010).

Where “and” joins values, the source holds several entries; their conditions need not be identical. Identical values can stand only once. Entries after “also recorded” stand apart in the source; their conditions may differ.

Y-G-G-F-L-R-R-I-R-P-K-L-K-W-D-N-Q: in “rhesus monkey blood”, the cleaved bond entry is “Arg6-Arg7, major; also recorded: Tyr1-G2, major”; the fragment found is 2–6 and 8–17 and 9–17 and 11–17 and 3–17 and 4–17. In the data set “human blood”, the cleaved bond entry is “Arg6-Arg7, major; also recorded: Tyr1-G2, major”; the fragment found was 3–17 and 4–17 and 2–6 and 8–17 and 9–17 and 11–17.
